In patent US20240050512A1, “REDUCTION OF VIRAL INFECTIONS” (priority 2020, published 2024):

Target: T1, cathepsin L protease (Homo sapiens, UniProt P07711)
T1 construct: purchased BPS Bioscience
Test: Protease inhibition, cell-free fluorogenic kit (BPS Bioscience)
Format: biochemical

T1 sequence (P07711 114-333): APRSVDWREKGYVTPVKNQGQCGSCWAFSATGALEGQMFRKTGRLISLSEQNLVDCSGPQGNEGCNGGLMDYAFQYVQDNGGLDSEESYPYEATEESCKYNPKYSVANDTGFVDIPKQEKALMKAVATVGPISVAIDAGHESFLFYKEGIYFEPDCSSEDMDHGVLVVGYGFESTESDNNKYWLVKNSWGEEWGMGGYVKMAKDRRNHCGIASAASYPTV

SMILES: CC(C)C[C@H](NC(=O)[C@H]1O[C@@H]1C(=O)O)C(=O)NCCCCN=C(N)N [Composition E-64, E-64]
- Percentage inhibition (0.0001 μM): −15.5%
- Percentage inhibition (0.001 μM): −1.1 ^ %
